In test [1] the test system is IL-6 in human peripheral blood mononuclear cells (huPBMCs). Description: IL-6 inhibition in LPS-stimulated human peripheral blood mononuclear cells (HTRF). The note with it: Homo sapiens, PBMC; for EC50: LPS 50 ng/mL, 22 hours, IL-6 HTRF; for inhibition at 10 µM: read-out: percent inhibition at 10 μM (given for EC50 >10 μM), LPS, IL-6, 10 μM. The test is classed as cell-based. The procedure, abridged: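 Compound-treated huPBMCs (1×10e6 cells/mL, 1% FBS-RPMI) were stimulated after 2 h with LPS (50 ng/mL) for another 22 h at 37° C. An anti-IL-6 HTRF pair reported IL-6 as the 665/620 nm ratio; activity relative to DMSO, EC50 by 4-parameter Levenberg-Marquardt fitting, duplicates.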

In test [2] the test system is LL29 cells (primary human fibroblasts derived from IPF patients), α-smooth muscle actin. The experiment in a line: Inhibition of fibrotic process: TGF-β1-treated primary human fibroblasts, αSMA staining.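 For all read-outs here: controls were TGF-β1-stimulated wells with DMSO vehicle as the positive reference and cells given DMSO alone as the negative reference.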 The test is classed as cell-based. The note with it: Homo sapiens, Fibroblast; for EC50: 96 h, TGF-β1 20 ng/mL, 4 days, % cells positive for αSMA; for inhibition at 10 µM: read-out: percent inhibition at 10 μM (given for EC50 >10 μM), TGF-β1, αSMA, 10 μM.

For test [3], the system named is SW480 colon carcinoma cells. Description: Cell viability assay (CellTiter-Glo). The test is classed as cell-based, human. The conditions noted are these: Homo sapiens; for EC50: 96 h, four days, CellTiter-Glo; for inhibition at 10 µM: read-out: percent inhibition at 10 μM (given for EC50 >10 μM), 10 μM. A general note: In ATP-based viability assays light output follows the ATP content of the culture.

In test [4] the test system is secreted cytokines TNFα, IL-6 and KC-GRO in BV-2 cells (mouse microglial cells). Description: Secreted cytokines in lipopolysaccharide-stimulated mouse glial cell line. The test is classed as cell-based. The note with it: LPS 250 ng/mL 5 hours, table does not say which cytokine. As for the experimental part: Representative compounds were screened using the cell-based assay procedure for secreted cytokines in a Lipopolysaccharide-stimulated mouse glial cell line described below.
BV-2 cells (mouse microglial cells) were cultured in 1:1 DMEM medium supplemented with 10% FBS, and 1% penicillin/streptomycin.
BV-2 cells are plated at 35,000 cells/well in a volume of 100 μl for at least 4 hours before compounds are added. DMSO-resuspended compounds were first dispensed in a 96-well plate and serial diluted from 10 μM to 4.6 nM final concentration in medium. Compounds were added to cells overnight. 250 ng/mL of lipopolysaccharide (Escherichia coli O111:B4, SIGMA) was added for 5 hours. Supernatant is removed and saved for further cytokine detection. The original plates with seeded cells were tested for cytotoxicity by measure of adenosine triphosphate (ATP) release by adding CellTiter-Glo® diluted 1:4 in distilled water (G7573, Promega) and transferring lysed cells to a completely black 96-well plate to be read with the Cytation3. Supernatant was then diluted 1:2 with a diluent from V-PLEX cytokine Kit and directly tested for the secreted cytokines TNFα, IL-6 and KC-GRO using electrochemiluminescence (Meso Scale Discovery). The standard curve for each cytokine was used to convert the electrochemiluminescent signal into pg of protein per mL. The signal was used to plot, draw the curve fitting, and determine each compounds EC50 in Prism (GraphPad).

For another test, the target named is recombinant GSK3β kinase (Homo sapiens (Human), UniProt P49841). The experiment in a line: GSK3β kinase assay (Ser/Thr 09 peptide Z-lyte, FRET).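 Note: FRET read-out as coumarin over fluorescein emission ratio, compounds incubated one hour at room temperature, IC50 from dose-response curve fit.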 The test is classed as biochemical.
The subject of test [5] is pT212Tau in Dyrk1a- and MAPT-overexpressing HEK293T cells. The experiment in a line: Tau phosphorylation at Threonine 212 (pT212Tau) sandwich ELISA in double transfected cells. The conditions noted are these: Homo sapiens, HEK-293T, read-out: Thr212 EC50 (μM). (In general: ELISA stands for enzyme-linked immunosorbent assay.)
For test [6], the target named is recombinant DYRK1A kinase (Homo sapiens (Human), UniProt Q13627). Description: DYRK1A kinase assay (Ser/Thr 18 peptide Z-lyte, FRET).
Method: Each compound was dissolved in DMSO as a 10 mM stock and used to prepare compound source plates.
This is a non-radioactive assay using fluorescence resonance energy transfer (FRET) between coumarin and fluorescein to detect kinase activity which is represented as a ratio of coumarin emission/fluorescein emission.
The mixture was allowed to incubate with the representative compounds for one hour at room temperature. All reactions were performed in duplicate. Unphosphorylated (“0% Control”) and phosphorylated (“100% control”) forms of Ser/Thr 18 served as control reactions. Additionally, an 11-point dose-response curve of Staurosporine (luM top) was run to serve as a positive compound control.
After incubation, Development Reagent A was diluted in Development Buffer then added to the reaction and allowed to further incubate for one hour at room temperature.
Dose-response curves were generated and inhibitory concentration (IC50) values were calculated using non-linear regression curve fit in the Dotmatics' Studies Software (Bishops Stortford, UK).
Test [7] deals with Wnt activity (SW480 colon carcinoma cells stably expressing the Sp5-Luc reporter gene). The experiment in a line: Wnt activity screening assay (Sp5-Luc reporter gene assay). The note with it: Homo sapiens; for EC50: 36 to 48 hours; for inhibition at 10 µM: read-out: percent inhibition at 10 μM (given for EC50 >10 μM), 10 μM. The format is cell-based, human. The method, boiled down:
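EC50 values come from a variable-slope four-parameter fit of luminescence normalized to DMSO-only wells. The read-out follows 36–48 h incubation at 37 °C, 5% CO2, in DMEM containing 1% fetal bovine serum. Cells are hygromycin-selected SW480 stably expressing firefly luciferase under a Wnt-responsive Sp5 promoter (eight TCF/LEF sites).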

Test [8] relates to Tau phosphorylation at Ser396 (pSer396) in SH-SY5Y cells. Description: Tau phosphorylation at Ser396 (pSer396) cell assay, ELISA/western blot. The test is classed as cell-based, human. The conditions noted are these: Homo sapiens, SH-SY5Y, read-out: EC50 in the Tau assay. On the procedure:
SH-SY5Y cells (human neuroblastoma) were cultured in DMEM/F-12 medium supplemented with 15% FBS, Non-essential Amino Acid and Penicillin/Streptomycin. Two days before treatment, cells were seeded onto 96 well plates at 5×10^4 cells/well.
The above synthesized compounds were screened using the cell assay procedure to assess decrease Tau phosphorylation at Ser396 (pSer396) described below.
DMSO-resuspended compounds were dispensed to 8 wells as a serial titration from 10 μM to 4.6 nM final in medium and cells were exposed overnight (16-18 h) in a humidified incubator at 36.6c before harvest.
Cells were lysed with RIPA buffer complemented with phosphatase and protease inhibitors then lysates were spun down at 12,000 g for 10 min to remove any cellular debris. Lysates are then either directly tested for pSer396 by ELISA (Life Technology, Kit KHB7031) or loaded on NuPage Bis-Tris gels for western blot analysis. Colorimetric detection of ELISA signal is performed by Cytation3 plate reader (Biotek) and the chemiluminescence signal for HRP-linked antibodies used in western blotting is detected using a Carestream Image Station. The same pSer396 antibody is used for detection of pTau in both assays.
Blot densitometry for pSer396 and β-actin were analyzed using ImageJ (NIH) and pSer396 Tau ELISA signal was used to plot, draw the curve fitting, and determine each compounds EC50 in Prism (GraphPad).

The mark [9] stands for this setting: GSK3β kinase, head says EC50, method says IC50, ATP 46 μM.
Where [10] appears, read: DYRK1A kinase, head says EC50, method says IC50, ATP 30 μM.

Like-named read-outs stand apart in the source and are kept apart here.

recombinant GSK3β kinase, sequence (P49841 whole entry): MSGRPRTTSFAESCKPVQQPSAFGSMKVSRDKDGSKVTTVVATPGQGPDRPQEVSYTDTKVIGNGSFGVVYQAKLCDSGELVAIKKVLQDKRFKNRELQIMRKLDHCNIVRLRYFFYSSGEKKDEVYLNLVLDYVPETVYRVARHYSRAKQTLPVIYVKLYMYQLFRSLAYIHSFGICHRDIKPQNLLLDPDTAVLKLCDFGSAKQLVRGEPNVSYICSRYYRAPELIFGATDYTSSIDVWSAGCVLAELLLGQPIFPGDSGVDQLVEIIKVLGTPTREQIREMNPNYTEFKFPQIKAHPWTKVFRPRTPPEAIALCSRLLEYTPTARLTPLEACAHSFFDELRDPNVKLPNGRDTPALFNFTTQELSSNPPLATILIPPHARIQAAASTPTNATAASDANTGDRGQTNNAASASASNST

On to `O=C(CN1CCOCC1)Nc1cc2cc(-c3cncc(F)c3)ccc2cn1` [Compound 22, N-(6-(5-Fluoropyridin-3-yl)isoquinolin-3-yl)-2-morpholinoacetamide], for which the EC50 (in general, the concentration that produces a half-maximal response) in test [1] is over 10000 nM; in [2], 2060 nM; in [3], over 10000 nM; in [4], 1320 nM; on recombinant GSK3β kinase it was 1770 nM; in test [5], 0.253 µM. The concentration giving a half-maximal response (EC50) in test [6] is 70 nM; in test [7], over 10000 nM. Moreover, the inhibition – broadly, the drop in the measured response relative to a control, in per cent – at 10 µM in test [1] was found to be 22.9%; in [3], 17.2%; in test [7], 10.9%.

For the compound `O=C(Nc1cc2cc(-c3cncc(C(F)F)c3)ccc2cn1)c1cccc(C2CCNCC2)c1` [Compound 26, N-(6-(5-(Difluoromethyl)pyridin-3-yl)isoquinolin-3-yl)-3-(piperidin-4-yl)benzamide], the half-maximal effective concentration (EC50) is 1320 nM in [1]; 1330 nM in [2]; 1860 nM in test [3]; 479 nM in [4]; over 10000 nM on recombinant GSK3β kinase (setting [9]); 1.4 µM in test [5]. Further, the EC50 in test [6] (setting [10]) was determined as 29 nM; in [7], 1550 nM.

`CN1CCC(c2cccc(C(=O)Nc3cc4cc(-c5cncc(C(F)F)c5)ccc4cn3)c2)CC1` [Compound 27, N-(6-(5-(Difluoromethyl)pyridin-3-yl)isoquinolin-3-yl)-3-(1-methylpiperidin-4-yl)benzamide]: the EC50 in test [1] was 9160 nM; in test [2], 979 nM; in test [3], 1950 nM; in test [4], 847 nM; on recombinant GSK3β kinase (setting [9]) it was over 10000 nM; in [5], 6.8 µM. For the same compound, the half-maximal effective concentration (EC50) in test [6] (setting [10]) came out at 29 nM; in test [7], 1110 nM.

Turning to `CN1CCN(c2cc(C(=O)Nc3cc4cc(-c5cncc(C(F)F)c5)ccc4cn3)ccn2)CC1` [Compound 28, N-(6-(5-(Difluoromethyl)pyridin-3-yl)isoquinolin-3-yl)-2-(4-methylpiperazin-1-yl)isonicotinamide], the EC50 in test [1] is 7430 nM; in test [2], 1520 nM; in test [3] it was 4150 nM; in [4], 295 nM; at recombinant GSK3β kinase (setting [9]) it was over 10000 nM; in [5], 1.6 µM. The EC50 in test [6] (setting [10]) was determined as 11 nM; in [7], 4680 nM.

Turning to `O=C(CN1CCOCC1)Nc1cc2cc(-c3cccnn3)ccc2cn1` [Compound 66, 2-morpholino-N-(6-(pyridazin-3-yl)isoquinolin-3-yl)acetamide], the EC50 was over 10000 nM in test [1]; over 10000 nM in [2]; over 10000 nM in [3]; 2970 nM in [4]; 859 nM at recombinant GSK3β kinase; 0.791 µM in test [5]. Moreover, the values for the concentration for a half-maximal effect (EC50) in test [6] and in test [7] were 123 nM and over 10000 nM, respectively. Further, the inhibition at 10 µM stood at 8.1% in test [1], 10.6% in [2], 17.5% in test [3] and 8.2% in [7].

As to `O=C(CN1CCCC1)Nc1cc2cc(-c3cnccn3)ccc2cn1` [Compound 74, N-(6-(Pyrazin-2-yl)isoquinolin-3-yl)-2-(pyrrolidin-1-yl)acetamide], the concentration for a half-maximal effect (EC50) is over 10000 nM in test [1]; over 10000 nM in test [2]; over 10000 nM in test [3]; 1430 nM in test [4]; 1690 nM at recombinant GSK3β kinase (setting [9]); 2.1 µM in [5]. The half-maximal effective concentration (EC50) in test [6] (setting [10]) is 94 nM; in test [7], over 10000 nM. Besides, the inhibition at 10 µM in test [1] was 4.9%; in [2] it was 18.7%; in [3] it was 125%; in test [7], 17.5%.

As for `O=C(CN1CCOCC1)Nc1cc2cc(-c3cnccn3)ccc2cn1` [Compound 79, 2-Morpholino-N-(6-(pyrazin-2-yl)isoquinolin-3-yl)acetamide], the half-maximal effective concentration (EC50) was over 10000 nM in test [1]; over 10000 nM in test [2]; over 10000 nM in [3]; 1700 nM in [4]; 1310 nM at recombinant GSK3β kinase (setting [9]); 0.959 µM in test [5]. Besides, the 50% effective concentration (EC50) in test [6] (setting [10]) is 79 nM; in [7], over 10000 nM. Moreover, the inhibition at 10 µM in test [1] came to 3.9%; in [2], 17.2%; in test [3], 24.8%; in test [7], 7.9%.

As for `CN1CCCC(C(=O)Nc2cc3cc(-c4cnccn4)ccc3cn2)CC1` (stereo not shown) [Compound 80, 1-Methyl-N-(6-(pyrazin-2-yl)isoquinolin-3-yl)azepane-4-carboxamide], the EC50 in test [1] was over 10000 nM; in [2], 9130 nM; in test [3], over 10000 nM; at recombinant GSK3β kinase (setting [9]) it was 1560 nM; in [5], 1.4 µM; in test [6] (setting [10]) it was 27 nM. In [7], this compound came in with a concentration for a half-maximal effect (EC50) of over 10000 nM. For the same compound, the inhibition at 10 µM in test [1] stood at 4.9%; in [3] it was 32%; in [7] it was 9.6%.

With `CC(C)(O)CN1CCCC(C(=O)Nc2cc3cc(-c4cnccn4)ccc3cn2)CC1` (stereo not shown) [Compound 82, 1-(2-Hydroxy-2-methylpropyl)-N-(6-(pyrazin-2-yl)isoquinolin-3-yl)azepane-4-carboxamide], the concentration for a half-maximal effect (EC50) is over 10000 nM in [1]; 3150 nM in test [2]; over 10000 nM in test [3]; 717 nM in test [4]; 1540 nM at recombinant GSK3β kinase; 0.192 µM in test [5]. The EC50 in test [6] is 27 nM; in test [7], over 10000 nM. Further, the inhibition at 10 µM in [1] came to 9.9%; in [3], 20%; in [7], 3.4%.

Regarding `CC(C)N1CCC(c2nc(C(=O)Nc3cc4cc(-c5cncc(F)c5)ccc4cn3)co2)CC1` [Compound 150, N-(6-(5-Fluoropyridin-3-yl)isoquinolin-3-yl)-2-(1-isopropylpiperidin-4-yl) oxazole-4-carboxamide], the concentration for a half-maximal effect (EC50) is over 10000 nM in test [1]; over 10000 nM in test [2]; over 10000 nM in test [3]; over 10000 nM at recombinant GSK3β kinase; 1630 nM in [6]; over 10000 nM in test [7]. Moreover, the inhibition at 10 µM is 10.7% in [1], 42% in [2], 10.9% in [3] and 15.2% in [7].

Take `COc1ccc2c(c1)[nH]c1c(C)nccc12` [Harmine, reference compound]: the EC50 in [8] is over 10000 nM.

The record behind these values is patent US10653688B2, “6-(6-membered heteroaryl and aryl)isoquinolin-3-yl carboxamides and preparation and use thereof” (Samumed, LLC, priority 2017, dated 2020).
